{"source": "ChEMBL document CHEMBL3638956", "about": "“Tetrahydro-pyrazolo[1,5-a]pyrido-pyrimidines as antagonists of serotonin 5-HT6 receptors, methods for the production and use thereof” (2013)", "target": "5-hydroxytryptamine receptor 6 (Homo sapiens, UniProt P50406)", "sequence (P50406 whole entry)": "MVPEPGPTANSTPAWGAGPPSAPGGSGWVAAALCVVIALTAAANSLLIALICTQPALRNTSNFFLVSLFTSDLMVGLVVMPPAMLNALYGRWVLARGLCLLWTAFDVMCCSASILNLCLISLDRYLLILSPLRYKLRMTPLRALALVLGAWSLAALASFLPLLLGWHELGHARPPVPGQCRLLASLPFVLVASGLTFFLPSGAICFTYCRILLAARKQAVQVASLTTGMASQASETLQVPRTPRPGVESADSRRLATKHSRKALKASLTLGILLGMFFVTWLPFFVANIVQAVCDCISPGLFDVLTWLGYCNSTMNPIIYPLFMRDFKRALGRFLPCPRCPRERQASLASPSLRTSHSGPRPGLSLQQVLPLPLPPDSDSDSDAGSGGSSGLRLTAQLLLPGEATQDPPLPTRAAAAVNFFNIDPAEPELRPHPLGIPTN", "experiment": "Competitive Binding Assay: Activity test of serotonin 5-HT6 receptor antagonists of the general formulas 1, 2 in the setting of competitive binding to serotonin 5-HT6 receptors."}
{"smiles": "Cc1nn2c3c(cnc2c1S(=O)(=O)c1ccccc1)CN(C)CC3", "values": [{"measurement": "IC50", "value": 13, "unit": "nM"}]}
{"smiles": "CSc1nn2c3c(cnc2c1S(=O)(=O)c1ccccc1)CN(C)CC3", "values": [{"measurement": "IC50", "value": 76.9, "unit": "nM"}, {"measurement": "Ki", "value": 35.7, "unit": "nM"}]}
{"smiles": "Cc1nn2c3c(cnc2c1S(=O)(=O)c1ccccc1)CNCC3", "values": [{"measurement": "Ki", "value": 2.14, "unit": "nM"}]}
{"smiles": "CSc1nn2c3c(c(C)nc2c1S(=O)(=O)c1ccccc1)CNCC3", "values": [{"measurement": "IC50", "value": 16.6, "unit": "nM"}, {"measurement": "Ki", "value": 7.7, "unit": "nM"}]}
